Experimental findings from ChEMBL document CHEMBL1201862, “PubChem BioAssay data set” (2004) are described below.

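These data come from cells grown in 96-well plates and exposed to compound for 48 hours at five concentrations. Abbreviation: GI50, concentration required for 50% inhibition of growth.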 Activity calls are given as the source filed them. Rule as the data show it: active = GI50 up to about 1.1 µM and inactive = higher. Some results are limits rather than exact numbers.

Some test systems named below: A549; TK-10; Malme-3M; CCRF-CEM; EKVX; SNB-75; OVCAR-4; MOLT-4; CAKI-1; NCI-H460; SF-295; HCT-15; OVCAR-3; RXF 393; SF-539; RPMI-8226; HCT-116; HOP-62.
Common to all, as to assay: growth of human tumour cells (NCI), 48 h

As for `C/C(=C\CC/C=C(\C)CC/C=C(\C)CCC1SC1(C)C)CC/C=C(\C)CCC1OC1(C)C` (stereo unspecified), the GI50 in the assay on A549, in the assay with TK-10, in the assay on Malme-3M, in the assay on CCRF-CEM, with EKVX and with SNB-75 was > 100 µM (inactive) in each case. The GI50 with OVCAR-4 was > 100 µM (inactive); in the assay with MOLT-4, > 100 µM (inactive); with CAKI-1 it was > 100 µM (inactive); in the assay with NCI-H460, > 100 µM (inactive); in the assay with SF-295, > 100 µM (inactive); in the assay on HCT-15 it was above 100 µM. For the same compound, the GI50 is > 100 µM (inactive) in the assay with OVCAR-3; 89.7 µM (inactive) with RXF 393; > 100 µM (inactive) with SF-539; > 100 µM (inactive) in the assay on RPMI-8226; 78 µM (inactive) with HCT-116.
With `COC(=O)c1nc(-c2ccc(Cl)c(Cl)c2)nc2ccc(Cl)cc12`, the GI50 in the assay with A549 is 97.7 µM (inactive); in the assay on TK-10, 44 µM (inactive); in the assay on Malme-3M, > 100 µM (inactive); in the assay with CCRF-CEM, > 10 µM (inactive); with EKVX, 59.7 µM (inactive); in the assay with SNB-75 it was 19.6 µM (inactive). In addition, the GI50 in the assay with MOLT-4 is > 10 µM (inactive); in the assay with CAKI-1, > 10 µM (inactive); in the assay on NCI-H460, > 100 µM (inactive); with SF-295, 37.7 µM (inactive); with OVCAR-3, > 10 µM (inactive); with RXF 393, 22.8 µM (inactive). In addition, the GI50 in the assay with SF-539 is 17.5 µM (inactive); in the assay with RPMI-8226, > 100 µM (inactive); with HCT-116, 18.4 µM (inactive).
As for `Cc1cn(C2CC(OC3CCCCO3)C(CO)O2)c(=O)[nH]c1=O` (stereo unspecified), the GI50 in the assay on A549, in the assay on HOP-62, in the assay on TK-10, with Malme-3M, with CCRF-CEM and in the assay on EKVX was > 100 µM (inactive) each time. Also, the GI50 is > 100 µM (inactive) in the assay with OVCAR-4; > 100 µM (inactive) with MOLT-4; > 100 µM (inactive) in the assay on NCI-H460; > 100 µM (inactive) in the assay on SF-295; above 100 µM in the assay with HCT-15; > 100 µM (inactive) with OVCAR-3. The GI50 in the assay with RXF 393, in the assay on SF-539, with RPMI-8226 and in the assay with HCT-116 was > 100 µM (inactive) in each case.
Turning to `CCCC(=O)OCC(O)CO` (stereo unspecified), the GI50 was > 5000 µM (inactive) with A549; > 5000 µM (inactive) with HOP-62; 1570 µM (inactive) in the assay on TK-10; 3610 µM (inactive) in the assay with Malme-3M; 4500 µM (inactive) in the assay with CCRF-CEM; > 5000 µM (inactive) with SNB-75. The GI50 is > 5000 µM (inactive) in the assay with OVCAR-4; > 5000 µM (inactive) in the assay with MOLT-4; 2040 µM (inactive) in the assay on CAKI-1; 4570 µM (inactive) in the assay on NCI-H460; > 5000 µM (inactive) in the assay on SF-295; above 5000 µM in the assay on HCT-15. In addition, the GI50 is 3090 µM (inactive) in the assay on RXF 393, > 5000 µM (inactive) in the assay with SF-539, 2990 µM (inactive) in the assay on RPMI-8226 and > 5000 µM (inactive) in the assay on HCT-116.
Take `CCOc1ccc(C2=NN(CC)C(=O)C(C3C(=O)N(c4ccccc4)N=C3C)C2)cc1` (stereo unspecified): the GI50 in the assay on A549, with HOP-62, in the assay with TK-10, in the assay on Malme-3M, in the assay on CCRF-CEM and with EKVX was > 100 µM (inactive) in each case. The GI50 in the assay on OVCAR-4 was > 100 µM (inactive); in the assay on MOLT-4, > 100 µM (inactive); in the assay on CAKI-1, > 100 µM (inactive); in the assay on NCI-H460, > 100 µM (inactive); with SF-295, > 100 µM (inactive); with HCT-15, above 100 µM. Besides, the GI50 in the assay on OVCAR-3, in the assay on RXF 393, with SF-539, in the assay with RPMI-8226 and in the assay with HCT-116 was > 100 µM (inactive) in each case.
For the compound `CC(C)(C)NC(=O)NC12CC3CC(CC(F)(C3)C1)C2`, the GI50 in the assay on A549, in the assay with HOP-62, with TK-10, in the assay on Malme-3M, in the assay on CCRF-CEM and in the assay with EKVX was > 100 µM (inactive) throughout. Further, the GI50 in the assay with SNB-75 is 52.7 µM (inactive); with MOLT-4, > 100 µM (inactive); with NCI-H460, > 100 µM (inactive); in the assay on OVCAR-3, > 100 µM (inactive); in the assay with RXF 393 it was > 100 µM (inactive); in the assay on SF-539, > 100 µM (inactive). Further, the GI50 in the assay on RPMI-8226 and in the assay on HCT-116 was > 100 µM (inactive) each time.
As for `COC(=O)C1=C(c2cc(OC)c(OC)c(OC)c2)OC(c2ccc3c(c2)OCO3)C1` (stereo unspecified), the GI50 in the assay with A549 was 34.5 µM (inactive); in the assay on HOP-62, 35.7 µM (inactive); in the assay with TK-10, 80 µM (inactive); in the assay on Malme-3M it was 72.1 µM (inactive); in the assay with CCRF-CEM, 27.6 µM (inactive); in the assay with EKVX it was 27 µM (inactive). Also, the GI50 in the assay on SNB-75 is 39.4 µM (inactive); in the assay with OVCAR-4 it was 40.5 µM (inactive); with MOLT-4, 15.8 µM (inactive); in the assay on CAKI-1, 22.6 µM (inactive); in the assay with NCI-H460 it was 31.7 µM (inactive); in the assay on SF-295, 18.5 µM (inactive). In addition, the GI50 is 19.1 µM with HCT-15; 26.9 µM (inactive) in the assay with OVCAR-3; 49 µM (inactive) in the assay on RXF 393; 20.7 µM (inactive) with SF-539; 33.4 µM (inactive) in the assay with RPMI-8226; 32.9 µM (inactive) with HCT-116.
Turning to `C[Si](C)(C)/C=C\CCO`, the GI50 with A549, in the assay on TK-10, with Malme-3M, in the assay on CCRF-CEM, with EKVX and in the assay on SNB-75 was > 100 µM (inactive) in each case. The GI50 with MOLT-4 was > 100 µM (inactive); in the assay with NCI-H460, > 100 µM (inactive); in the assay on SF-295, > 100 µM (inactive); in the assay on HCT-15 it was above 100 µM; with OVCAR-3 it was > 100 µM (inactive); in the assay with RXF 393, > 100 µM (inactive). Moreover, the GI50 with SF-539, with RPMI-8226 and in the assay with HCT-116 was > 100 µM (inactive) in each case.
As to `c1ccc(C2(c3ccccc3)SSC3(S2)C2CC4CC(C2)CC3C4)cc1` (stereo unspecified), the GI50 with A549 is > 100 µM (inactive); in the assay with TK-10, > 100 µM (inactive); with Malme-3M, > 100 µM (inactive); with CCRF-CEM, 39.7 µM (inactive); in the assay with EKVX it was > 100 µM (inactive); in the assay on SNB-75 it was > 100 µM (inactive). Further, the GI50 in the assay on OVCAR-4 is > 100 µM (inactive); in the assay with MOLT-4, > 56.6 µM (inactive); with CAKI-1, > 100 µM (inactive); in the assay on NCI-H460 it was > 100 µM (inactive); in the assay with SF-295, > 100 µM (inactive); in the assay on HCT-15 it was above 100 µM. The GI50 in the assay with RXF 393 was > 100 µM (inactive); in the assay on SF-539 it was > 100 µM (inactive); in the assay on RPMI-8226, 37.2 µM (inactive); in the assay on HCT-116 it was > 100 µM (inactive).
For `N#CC(C(=O)/C(=N\NC(N)=O)C(C#N)c1ccc(Cl)cc1)c1ccc(Cl)cc1` (stereo unspecified), the GI50 with A549, in the assay on HOP-62, in the assay on Malme-3M, with CCRF-CEM, with EKVX and in the assay on OVCAR-4 was > 100 µM (inactive) in each case. Besides, the GI50 with MOLT-4 was > 100 µM (inactive); with NCI-H460, > 100 µM (inactive); in the assay with SF-295 it was > 100 µM (inactive); in the assay with HCT-15 it was above 100 µM; with OVCAR-3, > 100 µM (inactive); in the assay with RXF 393, > 100 µM (inactive). Besides, the GI50 in the assay with SF-539, in the assay on RPMI-8226 and with HCT-116 was > 100 µM (inactive) throughout.
With `CCc1cccc(C)c1N1C(=O)C(=O)C(c2nc3ccccc3o2)/C(=N/NC(=S)NN)C1=O` (stereo unspecified), the GI50 in the assay with A549, in the assay with HOP-62, in the assay with TK-10, in the assay with Malme-3M, in the assay with CCRF-CEM and in the assay on EKVX was > 100 µM (inactive) throughout. The GI50 with SNB-75 was > 100 µM (inactive); in the assay with OVCAR-4 it was > 100 µM (inactive); with CAKI-1, > 100 µM (inactive); with NCI-H460, > 100 µM (inactive); in the assay on SF-295, > 100 µM (inactive); in the assay with HCT-15, above 100 µM. In addition, the GI50 in the assay on OVCAR-3, in the assay on RXF 393, with SF-539, with RPMI-8226 and with HCT-116 was > 100 µM (inactive) each time.
As to `Nc1ncnc2c1ncn2CCOC(c1ccccc1)P(=O)(O)O` (stereo unspecified), the GI50 in the assay on A549, in the assay on TK-10, with Malme-3M, with CCRF-CEM, in the assay on EKVX and with SNB-75 was > 100 µM (inactive) in each case. The GI50 in the assay on MOLT-4 is > 100 µM (inactive); in the assay with CAKI-1, > 100 µM (inactive); in the assay with NCI-H460 it was > 100 µM (inactive); in the assay on SF-295, > 100 µM (inactive); in the assay with HCT-15, above 100 µM; with OVCAR-3, > 100 µM (inactive). Moreover, the GI50 with RXF 393, in the assay on SF-539 and with HCT-116 was > 100 µM (inactive) each time.
